In patent US20170291905A1, “ARGININE […] INHIBITORS AND USES THEREOF” (Epizyme, Inc., priority 2014, published 2017):

Target: full-length human PRMT6 (Flag- and His-tagged) (Homo sapiens, UniProt Q96LA8)
Test: PRMT6 biochemical assay (3H-SAM Flashplate, histone H4 36-50 K44me1 peptide)
Settings: 1 nM PRMT6, 30 min preincubation, 75 nM peptide
In short: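 Flag/His-tagged full-length PRMT6 (1 nM) pre-incubated 30 min RT with compound in 20 mM Bicine pH 7.6, then given 200 nM 3H-SAM, 250 nM cold SAM and 75 nM biotinylated H4 36-50 K44me1 peptide. Methylated peptide captured on streptavidin Flashplates and counted; % inhibition versus DMSO and 1 mM SAH controls, fitted to 3- or 4-parameter curves.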

Sequence of full-length human PRMT6 (Flag- and His-tagged) (Q96LA8 with tags, fused parts or gaps): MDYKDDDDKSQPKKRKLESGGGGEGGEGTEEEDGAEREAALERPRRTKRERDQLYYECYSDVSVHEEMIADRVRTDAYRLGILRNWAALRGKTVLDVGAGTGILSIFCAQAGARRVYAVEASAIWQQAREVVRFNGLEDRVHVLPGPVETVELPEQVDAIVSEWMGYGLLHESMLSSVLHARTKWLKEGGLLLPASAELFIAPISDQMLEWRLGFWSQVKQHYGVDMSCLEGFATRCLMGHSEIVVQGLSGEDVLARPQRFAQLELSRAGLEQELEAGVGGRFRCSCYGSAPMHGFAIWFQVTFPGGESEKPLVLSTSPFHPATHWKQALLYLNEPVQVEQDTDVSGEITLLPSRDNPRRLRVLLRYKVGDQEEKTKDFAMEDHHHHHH

SMILES	IC50
CC[C@H]1CC[C@@H](c2n[nH]cc2CN(C)CCNC)CC1 [compound 1]	10.2 nM
CCOCCOCC1(COCCOCC)CCC(c2n[nH]cc2CN(C)CCNC)CC1 [compound 39, N1-((3-(4,4-bis((2-ethoxyethoxy)methyl)cyclohexyl)-1H-pyrazol-4-yl)methyl)-N1,N2-dimethylethane-1,2-diamine]	42 nM
CNCCN(C)Cc1c[nH]nc1C1CCC(COCCC2CCOCC2)(COCCC2CCOCC2)CC1 [compound 40]	37.4 nM
CNCCN(C)Cc1c[nH]nc1C1CCC(COCC2CC2)(COCC2CC2)CC1 [compound 41, N1-((3-(4,4-bis((cyclopropylmethoxy)methyl)cyclohexyl)-1H-pyrazol-4-yl)methyl)-N1,N2-dimethylethane-1,2-diamine]	6.94 nM
CN(C)CCN(C)Cc1c[nH]nc1[C@H]1CC[C@@]2(CC1)CC(C)(C)CO2 [compound 42, N1-((3-((5S,8S)-3,3-dimethyl-1-oxaspiro[4.5]decan-8-yl)-1H-pyrazol-4-yl)methyl)-N1,N2,N2-trimethylethane-1,2-diamine]	90.9 nM
CN(C)CCN(C)Cc1c[nH]nc1[C@H]1CC[C@]2(CC1)CC(C)(C)CO2 [compound 43, N1-((3-((5r,8r)-3,3-dimethyl-1-oxaspiro[4.5]decan-8-yl)-1H-pyrazol-4-yl)methyl)-N1,N2,N2-trimethylethane-1,2-diamine]	288 nM
CNCCN(C)Cc1c[nH]nc1C1CCC(CO)(CO)CC1 [compound 44, (4-(4-((methyl(2-(methylamino)ethyl)amino)methyl)-1H-pyrazol-3-yl)cyclohexane-1,1-diyl)dimethanol]	21.5 nM
CNCCN(C)Cc1c[nH]nc1C1CCC(COC)(COCC2CCOCC2)CC1 (stereo not drawn) [compound 45]	53.7 nM
CNCCN(C)Cc1c[nH]nc1C1=CCC2(CC1)CC(C)(C)CO2 (stereo not drawn) [compound 46, N1-((3-(3,3-dimethyl-1-oxaspiro[4.5]dec-7-en-8-yl)-1H-pyrazol-4-yl)methyl)-N1,N2-dimethylethane-1,2-diamine]	59.7 nM
CCC1(CC)C[C@]2(CC[C@H](c3n[nH]cc3CN(C)CCNC)CC2)NC1=O [compound 47, (5s,8s)-3,3-diethyl-8-(4-((methyl(2-(methylamino)ethyl)amino)methyl)-1H-pyrazol-3-yl)-1-azaspiro[4.5]decan-2-one]	15.8 nM
CCC1(CC)C[C@]2(CC[C@@H](c3n[nH]cc3CN(C)CCNC)CC2)NC1=O [compound 48, (5r,8r)-3,3-diethyl-8-(4-((methyl(2-(methylamino)ethyl)amino)methyl)-1H-pyrazol-3-yl)-1-azaspiro[4.5]decan-2-one]	73.6 nM
CNCCN(C)Cc1ccnn1[C@H]1CC[C@@]2(CC1)CC(C)(C)CO2 [compound 49, N1-((1-((5s,8s)-3,3-dimethyl-1-oxaspiro[4.5]decan-8-yl)-1H-pyrazol-5-yl)methyl)-N1,N2-dimethylethane-1,2-diamine]	128 nM
